{"source": "PubChem BioAssay AID1963843", "about": "(Molecular Pharmacology Branch, DTP, NCI, 2024);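 further: spheroids exposed to compounds for one week before readout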;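 on viability, T/C: percent viability relative to DMSO vehicle wells taken as 100%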", "system": "616215-338-R-J1-PDC complex spheroid viability", "assay": "Anticancer human tumor 616215-338-R-J1-PDC patient-derived colon adenocarcinoma cell line growth inhibition [POLQ]", "conditions": "for IC50: curve of first compound; for viability, T/C: stronger effect = lower value", "in_short": "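Growth inhibition in 3D: complex spheroids (tumor PDC, HUVEC, MSC) treated with POLQ inhibitor combinations; where Cmax unknown, highest tested concentration 10 microM, except SN-38 at 1 microM.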", "data": [{"smiles": "CC(=O)O[C@H]1C(=O)[C@@]2(C)[C@H]([C@H](OC(=O)c3ccccc3)[C@]3(O)C[C@H](OC(=O)[C@H](O)[C@@H](NC(=O)c4ccccc4)c4ccccc4)C(C)=C1C3(C)C)[C@]1(OC(C)=O)CO[C@@H]1C[C@@H]2O", "note": "+ Cc1cccc(N(C)C(=O)C2C(O)CCN2c2nc(C)cc(C(F)(F)F)c2C#N)c1", "values": [{"measurement": "IC50", "setting": "second compound 0.0316 µM", "result": "< 9.49", "unit": "nM"}, {"measurement": "IC50", "setting": "second compound 0.1 µM", "result": "< 9.49", "unit": "nM"}, {"measurement": "IC50", "setting": "second compound 0.316 µM", "result": "< 9.49", "unit": "nM"}, {"measurement": "IC50", "setting": "second compound 1 µM", "result": "< 9.49", "unit": "nM"}, {"measurement": "IC50", "setting": "second compound 3.16 µM", "result": "< 9.49", "unit": "nM"}, {"measurement": "IC50", "setting": "second compound 10 µM", "result": "< 9.49", "unit": "nM"}, {"measurement": "viability, T/C", "setting": "second compound 0.0316 µM, first compound 0.00949 µM", "result": 34.7, "unit": "%"}, {"measurement": "viability, T/C", "setting": "second compound 0.0316 µM, first compound 0.03 µM", "result": 20.2, "unit": "%"}, {"measurement": "viability, T/C", "setting": "second compound 0.0316 µM, first compound 0.0949 µM", "result": 20.4, "unit": "%"}, {"measurement": "viability, T/C", "setting": "second compound 0.0316 µM, first compound 0.3 µM", "result": 18.9, "unit": "%"}, {"measurement": "viability, T/C", "setting": "second compound 0.0316 µM, first compound 0.949 µM", "result": 19.3, "unit": "%"}, {"measurement": "viability, T/C", "setting": "second compound 0.0316 µM, first compound 3 µM", "result": 19.1, "unit": "%"}, {"measurement": "viability, T/C", "setting": "second compound 0.1 µM, first compound 0.00949 µM", "result": 31.6, "unit": "%"}, {"measurement": "viability, T/C", "setting": "second compound 0.1 µM, first compound 0.03 µM", "result": 22.5, "unit": "%"}, {"measurement": "viability, T/C", "setting": "second compound 0.1 µM, first compound 0.0949 µM", "result": 17.3, "unit": "%"}, {"measurement": "viability, T/C", "setting": "second compound 0.1 µM, first compound 0.3 µM", "result": 21.5, "unit": "%"}, {"measurement": "viability, T/C", "setting": "second compound 0.1 µM, first compound 0.949 µM", "result": 17.3, "unit": "%"}, {"measurement": "viability, T/C", "setting": "second compound 0.1 µM, first compound 3 µM", "result": 17.4, "unit": "%"}, {"measurement": "viability, T/C", "setting": "second compound 0.316 µM, first compound 0.00949 µM", "result": 39.5, "unit": "%"}, {"measurement": "viability, T/C", "setting": "second compound 0.316 µM, first compound 0.03 µM", "result": 23.8, "unit": "%"}, {"measurement": "viability, T/C", "setting": "second compound 0.316 µM, first compound 0.0949 µM", "result": 22.5, "unit": "%"}, {"measurement": "viability, T/C", "setting": "second compound 0.316 µM, first compound 0.3 µM", "result": 15.8, "unit": "%"}, {"measurement": "viability, T/C", "setting": "second compound 0.316 µM, first compound 0.949 µM", "result": 17.7, "unit": "%"}, {"measurement": "viability, T/C", "setting": "second compound 0.316 µM, first compound 3 µM", "result": 16.4, "unit": "%"}, {"measurement": "viability, T/C", "setting": "second compound 1 µM, first compound 0.00949 µM", "result": 36, "unit": "%"}, {"measurement": "viability, T/C", "setting": "second compound 1 µM, first compound 0.03 µM", "result": 27.6, "unit": "%"}, {"measurement": "viability, T/C", "setting": "second compound 1 µM, first compound 0.0949 µM", "result": 22.1, "unit": "%"}, {"measurement": "viability, T/C", "setting": "second compound 1 µM, first compound 0.3 µM", "result": 13.1, "unit": "%"}, {"measurement": "viability, T/C", "setting": "second compound 1 µM, first compound 0.949 µM", "result": 19, "unit": "%"}, {"measurement": "viability, T/C", "setting": "second compound 1 µM, first compound 3 µM", "result": 18.8, "unit": "%"}, {"measurement": "viability, T/C", "setting": "second compound 3.16 µM, first compound 0.00949 µM", "result": 40.9, "unit": "%"}, {"measurement": "viability, T/C", "setting": "second compound 3.16 µM, first compound 0.03 µM", "result": 21.6, "unit": "%"}, {"measurement": "viability, T/C", "setting": "second compound 3.16 µM, first compound 0.0949 µM", "result": 23.9, "unit": "%"}, {"measurement": "viability, T/C", "setting": "second compound 3.16 µM, first compound 0.3 µM", "result": 15.6, "unit": "%"}, {"measurement": "viability, T/C", "setting": "second compound 3.16 µM, first compound 0.949 µM", "result": 21.7, "unit": "%"}, {"measurement": "viability, T/C", "setting": "second compound 3.16 µM, first compound 3 µM", "result": 17.4, "unit": "%"}, {"measurement": "viability, T/C", "setting": "second compound 10 µM, first compound 0.00949 µM", "result": 33.5, "unit": "%"}, {"measurement": "viability, T/C", "setting": "second compound 10 µM, first compound 0.03 µM", "result": 26.9, "unit": "%"}, {"measurement": "viability, T/C", "setting": "second compound 10 µM, first compound 0.0949 µM", "result": 21.2, "unit": "%"}, {"measurement": "viability, T/C", "setting": "second compound 10 µM, first compound 0.3 µM", "result": 14.6, "unit": "%"}, {"measurement": "viability, T/C", "setting": "second compound 10 µM, first compound 0.949 µM", "result": 21.6, "unit": "%"}, {"measurement": "viability, T/C", "setting": "second compound 10 µM, first compound 3 µM", "result": 14.6, "unit": "%"}]}]}
